From patent US20240122899A1, “COMPOSITION FOR STIMULATING IMMUNE CELL METABOLISM” (SUNTORY HOLDINGS LIMITED, priority 2021, published 2024)

How the values were obtained:
[1] = mice orally administered, versus mice not administered; cited from earlier work
[2] = tested on: human peripheral blood mononuclear cells (PBMCs); assay: Mitochondrial stress test / oxygen consumption rate (XFe96 flux analyzer) in human PBMCs; type: cell-based; details: final concentration of 10 μM, 30 μM, or 100 μM
Protocol: The effect of the compound (L-ergothioneine) of the present invention on mitochondrial function was analyzed. Ergothioneine was added to human peripheral blood mononuclear cells (PBMCs) under the following conditions. The extracellular oxygen level and pH were measured in real time using an XFe96 flux analyzer (available from Agilent Technologies). XFe technology uses solid-state sensors to simultaneously measure both oxygen consumption rate (OCR) and extracellular acidification rate (ECAR) to determine effects on oxidative phosphorylation (OXPHOS) and glycolysis simultaneously. […] Then, the cells were sequentially exposed to various mitochondrial function inhibitors to evaluate cell metabolism. (Conditions for adding ergothioneine to human PBMCs) Human PBMCs were kept in an XF assay medium (XF RPMI1640 medium). Here, L-ergothioneine was adjusted to a final concentration of 0, 10, 30, or 100 μM. The cells (30,000 cells/50 μL/well) were seeded onto an XF96-well cell culture plate coated with PDL and were centrifuged at 200 g for one minute so that the cells were adhered to the plate. After culturing at 37° C. in the absence of CO2 for 20 minutes, the XF assay medium (130 μL) was added gently, followed by further culturing at 37° C. in the absence of CO2 for 40 minutes. The following mitochondrial stress test was performed on the obtained human PBMCs to which ergothioneine was added. An XF Mit Stress Kit (available from Agilent Technologies) was used for the experiment. […] The results obtained are shown in FIG. 1A (basal respiration), FIG. 1B (ATP production), and FIG. 1C (maximum respiration) to facilitate understanding of a possible mechanism of mitochondria metabolism. […] FIGS. 1A to 1C show the resulting values expressed as mean±standard deviation. A significance test was performed by Dunnett's test (test by multiple comparison assuming equal variance, p-value) using an Excel analysis tool to obtain test results relative to the final concentration (0 μM) of ergothioneine (*: p<0.05, **: p<0.01).

[3] = tested on: IL-6, IL-12, IL-1β, and IL-10; details: absence of the TLR ligand; ergothioneine concentration 0 or 10 mM; cited from earlier work

SMILES: C[N+](C)(C)[C@@H](Cc1c[nH]c(=S)[nH]1)C(=O)[O-] [ergothioneine, L-ergothioneine]
- peritesticular fat weight [1]: lower
- triglyceride (neutral fat) level in plasma [1]: lower
- oxygen consumption rate (OCR) of human PBMCs over time ([2]; FIG. 2): increase
- OCR related to basal respiration (mitochondrial basal respiration) ([2]; relative to 0 μM, FIG. 1A): significant increase
- OCR related to ATP-related respiration (mitochondrial ATP production) ([2]; relative to 0 μM, FIG. 1B): significant increase
- OCR related to maximum respiration (mitochondrial maximum respiration) ([2]; relative to 0 μM, FIG. 1C): significant increase
- detection of IL-6, IL-12, IL-1β, and IL-10 [3]: none of IL-6, IL-12, IL-1β, and IL-10 was detected
